Results from ChEMBL document CHEMBL6087420, “Synthesis and pharmacodynamic evaluation of 2-aminoindole derivatives against influenza A virus in vitro/vivo” (Eur J Med Chem, 2025).
Active and inactive are the calls of the source. The calls are words filed in the database; no cut-off is given here.

Experiments:
Influenza A virus [1] = test: Anti-influenza activity against influenza A virus H1NI (A/Weiss/43) infected in dog MDCK cells assessed as virus inhibition rate at 0.625 uM incubated for 72 hrs by MTT assay; format: functional, organism-based
[2] = Cytotoxicity against dog MDCK cells after 72 hrs incubation by MTT assay; format: toxicity, cell-based, Canis lupus familiaris
Influenza A virus [3] = test: Anti-influenza activity against influenza A virus H1NI (A/Weiss/43) infected in dog MDCK cells assessed as virus inhibition rate at 100 uM incubated for 72 hrs by MTT assay; format: functional, organism-based
[4] = Selectivity index, ratio of CC50 for dog MDCK cells to EC50 for antiviral activity against Influenza A virus H1N1 (A/Weiss/43) infected in MDCK cells; format: toxicity, cell-based
Influenza A virus [5] = test: Anti-influenza activity against influenza A virus H1NI (A/Weiss/43) infected in dog MDCK cells assessed as virus inhibition rate incubated for 72 hrs by MTT assay; format: functional, organism-based
Influenza A virus [6] = test: Inhibition of influenza A virus infection induced apoptosis in MDCK cells infected with influenza virus assessed as necrotic cells at 50 uM incubated for 36 hrs by AnnexinV-FITC/PI staining based flow cytometry (reference value: 1.79%); format: functional; set-up: scale not given: the % may be the effect or the level left
[7] = Selectivity index, ratio of CC50 for dog MDCK cells to EC50 for antiviral activity against Influenza A virus H1NI (A/Virginia/ATCC2/2009) infected in MDCK cells; format: toxicity, cell-based; conditions: read-out: Selectivity Index
Influenza A virus [8] = test: Inhibition of influenza A virus infection induced apoptosis in MDCK cells infected with influenza virus assessed as viable cells at 50 uM incubated for 36 hrs by AnnexinV-FITC/PI staining based flow cytometry (reference value: 66.9%); format: functional
[9] = Selectivity index, ratio of CC50 for dog MDCK cells to EC50 for antiviral activity against Influenza A virus […] H3N2 (A/California/2014) infected in MDCK cells; format: toxicity, cell-based; conditions: read-out: Selectivity Index
Influenza A virus [10] = test: Inhibition of influenza A virus infection induced apoptosis in MDCK cells infected with influenza virus assessed as early apoptotic cells at 50 uM incubated for 36 hrs by AnnexinV-FITC/PI staining based flow cytometry (reference value: 18.2%); format: functional; set-up: scale not given: the % may be the effect or the level left
Influenza A virus [11] = test: Anti-influenza activity against influenza A virus H1NI (A/Virginia/ATCC2/2009) infected in dog MDCK cells incubated for 72 hrs by MTT assay; format: functional, organism-based
Influenza A virus [12] = test: Inhibition of influenza A virus infection induced apoptosis in MDCK cells infected with influenza virus assessed as late apoptotic cells at 50 uM incubated for 36 hrs by AnnexinV-FITC/PI staining based flow cytometry (reference value: 13.2%); format: functional; set-up: scale not given: the % may be the effect or the level left
Influenza A virus [13] = test: Anti-influenza activity against influenza A virus H3N2 (A/California/2014) infected in dog MDCK cells incubated for 72 hrs by MTT assay; format: functional, organism-based

Compound	Virus inhibition rate at 0.625 uM (Influenza A virus [1])	CC50 at 72 h [2]	Activity (Influenza A virus [3])	other results
Cc1ccc(S(=O)(=O)n2c(NS(C)(=O)=O)c(-c3cccc(Cl)c3)c3ccccc32)cc1	Not_active	67.1 µM	inactive	
Cc1ccc(S(=O)(=O)n2c(NS(=O)(=O)c3ccccc3)c(-c3ccccc3)c3ccccc32)cc1	Not_active	109 µM	inactive	
Cc1ccc(S(=O)(=O)n2c(NS(C)(=O)=O)c(-c3ccccc3F)c3ccccc32)cc1	Not_active	< 6.25 µM	inactive	
Cc1ccc(S(=O)(=O)n2c(NS(C)(=O)=O)c(-c3ccccc3)c3ccc(C)cc32)cc1	Not_active	5.45 µM	inactive	
Cc1ccc(S(=O)(=O)n2c(NS(=O)(=O)c3ccc(Cl)cc3)c(-c3ccccc3)c3ccccc32)cc1	Not_active	< 6.25 µM	inactive	
Cc1ccc(S(=O)(=O)n2c(NS(C)(=O)=O)c(-c3ccc(Br)cc3)c3ccccc32)cc1	Not_active	13.2 µM	inactive	
COc1ccc(S(=O)(=O)n2c(NS(C)(=O)=O)c(-c3ccccc3)c3ccccc32)cc1	Not_active	12.6 µM	inactive	
COc1ccc2c(-c3ccccc3)c(NS(C)(=O)=O)n(S(=O)(=O)c3ccc(C)cc3)c2c1	Not_active	31.6 µM	inactive	
COc1ccc(S(=O)(=O)Nc2c(-c3ccccc3)c3ccccc3n2S(=O)(=O)c2ccc(C)cc2)cc1	Not_active	434 µM	inactive	
Cc1ccc(S(=O)(=O)n2c(NS(C)(=O)=O)c(-c3cccc(Br)c3)c3ccccc32)cc1	Not_active	16.9 µM	inactive	
Cc1ccc(S(=O)(=O)n2c(NS(C)(=O)=O)c(-c3ccccc3Cl)c3ccccc32)cc1	Not_active	20.9 µM	inactive	
CS(=O)(=O)Nc1c(-c2ccccc2)c2ccccc2n1S(=O)(=O)c1ccc(Cl)cc1	Not_active	14.6 µM	inactive	
Cc1ccc(S(=O)(=O)n2c(NS(C)(=O)=O)c(-c3cccc(F)c3)c3ccccc32)cc1	Not_active	55 µM	inactive	
COc1ccc(-c2c(NS(C)(=O)=O)n(S(=O)(=O)c3ccc(C)cc3)c3ccccc23)cc1		43.6 µM		selectivity ratio ([4]; read-out: Ratio CC50/EC50): 21.8; EC50 (Influenza A virus [5]): 2 µM
CS(=O)(=O)Nc1c(-c2ccccc2)c2ccccc2n1S(=O)(=O)c1ccccc1	Not_active	36.4 µM	inactive	
Cc1ccc(S(=O)(=O)n2c(NS(C)(=O)=O)c(-c3ccccc3)c3ccc(F)cc32)cc1	Not_active	22.8 µM	inactive	
Cc1ccc(S(=O)(=O)n2c(NS(C)(=O)=O)c(-c3ccc(F)cc3)c3ccccc32)cc1	Not_active	41 µM	inactive	

Compound	Virus inhibition rate at 0.625 uM (Influenza A virus [1])	CC50 at 72 h [2]	Activity (Influenza A virus [3])	other results
Cc1ccc(S(=O)(=O)n2c(NS(C)(=O)=O)c(-c3ccccc3)c3cc(Br)ccc32)cc1	Not_active	< 6.25 µM	inactive	
CCOC(=O)C1=C[C@@H](OC(CC)CC)[C@H](NC(C)=O)[C@@H](N)C1 [OSELTAMIVIR]		> 800 µM		Activity (Influenza A virus [6]): 2.11%; selectivity ratio [7]: > 68.6; Activity (Influenza A virus [8]): 91.7%; selectivity ratio [9]: > 30.4; Activity (Influenza A virus [10]): 3.85%; EC50 (Influenza A virus [11]; Influenza A virus, H1NI (A/Virginia/ATCC2/2009), MDCK, 72 h): 11.7 µM; selectivity ratio ([4]; read-out: Selectivity Index): > 107; Activity (Influenza A virus [12]): 2.33%; EC50 (Influenza A virus [13]): 26.3 µM; EC50 (Influenza A virus [5]): 7.1 µM
Cc1ccc(S(=O)(=O)n2c(NS(C)(=O)=O)c(-c3ccccc3)c3cc(F)ccc32)cc1	Not_active	24.4 µM	inactive	
CS(=O)(=O)Nc1c(-c2ccccc2)c2ccccc2n1S(=O)(=O)c1ccc([N+](=O)[O-])cc1	Not_active	55.6 µM	inactive	
Cc1ccc(S(=O)(=O)n2c(NS(C)(=O)=O)c(-c3cccc(C)c3)c3ccccc32)cc1	Not_active	16.5 µM	inactive	
Cc1ccc(S(=O)(=O)n2c(NS(=O)(=O)c3ccc([N+](=O)[O-])cc3)c(-c3ccccc3)c3ccccc32)cc1	Not_active	< 6.25 µM	inactive	
Cc1ccc(S(=O)(=O)n2c(NS(C)(=O)=O)c(-c3ccccc3)c3cc(Cl)ccc32)cc1	Not_active	12.8 µM	inactive	
Cc1ccc(S(=O)(=O)n2c(NS(C)(=O)=O)c(-c3ccccc3)c3cc(C)ccc32)cc1	Not_active	21.3 µM	inactive	
Cc1ccc(S(=O)(=O)n2c(NS(C)(=O)=O)c(-c3ccc(Cl)cc3)c3ccccc32)cc1	Not_active	14.8 µM	inactive	
NC(=O)c1ncn([C@@H]2O[C@H](CO)[C@@H](O)[C@H]2O)n1 [RIBAVIRIN]		513 µM		Activity (Influenza A virus [6]): 1.74%; selectivity ratio [7]: 62.6; Activity (Influenza A virus [8]): 92.8%; selectivity ratio [9]: 40; Activity (Influenza A virus [10]): 3.8%; EC50 (Influenza A virus [11]; mdck): 8.2 µM; selectivity ratio ([4]; read-out: Selectivity Index): 70; Activity (Influenza A virus [12]): 1.62%; EC50 (Influenza A virus [13]): 12.8 µM; EC50 (Influenza A virus [5]): 7.33 µM
Cc1ccc(S(=O)(=O)Nc2c(-c3ccccc3)c3ccccc3n2S(=O)(=O)c2ccc(C)cc2)cc1	Not_active	414 µM	inactive	
Cc1ccc(S(=O)(=O)n2c(NS(C)(=O)=O)c(-c3ccccc3C)c3ccccc32)cc1	Not_active	43 µM	inactive	
Cc1ccc(S(=O)(=O)n2c(NS(C)(=O)=O)c(-c3ccccc3)c3c(C)cc(C)cc32)cc1	Not_active	357 µM	inactive	
Cc1ccc(-c2c(NS(C)(=O)=O)n(S(=O)(=O)c3ccc(C)cc3)c3ccccc23)cc1	Not_active	14.1 µM	inactive	
Cc1ccc(S(=O)(=O)n2c(NS(C)(=O)=O)c(-c3ccccc3)c3ccccc32)cc1	Not_active	59 µM	inactive	
CS(=O)(=O)Nc1c(-c2ccccc2)c2ccccc2n1S(C)(=O)=O	Not_active	341 µM	inactive	
Cc1ccc(S(=O)(=O)n2c(NS(C)(=O)=O)c(-c3cccs3)c3ccccc32)cc1	Not_active	53.6 µM	inactive	
